Consider 2 molecules from US6372776B1, “Crystalline(−)-3R,4R-trans-7-methoxy-2,2-dimethyl-3-phenyl-4-{4-[2-(pyrrolidin-1-yl)ethoxy]phenyl}chromane, hydrogen maleate” (Novo Nordisk A/S, priority 1997, dated 2002).

A short description of one data set: solubility in water. The format is physicochemical.
Data set [1] is described as follows: stability characteristics.
Another data set in a line: hygroscopicity. It is filed as physicochemical.

In the case of `COc1ccc2c(c1)OC(C)(C)C(c1ccccc1)[C@@H]2c1ccc(OCCN2CCCC2)cc1` (single isomer, unassigned; (-)) [free base, (−)-3R,4R-trans-7-methoxy-2,2-dimethyl-3-phenyl-4-{4-[2-(pyrrolidin-1-yl)ethoxy]phenyl}chromane], in the data set “solubility in water”, the solubility in water result is on record as “very poor”.

“(−)-3R,4R-trans-7-methoxy-2,2-dimethyl-3-phenyl-4-{4-[2-(pyrrolidin-1-yl)ethoxy]phenyl}chromane, hydrogen maleate [hydrogen maleate salt]”: the stability characteristics result in data set [1] was “good”. In addition, in “bioavailability”, the bioavailability result was “good”. For the same molecule, the hygroscopicity entry in the data set “hygroscopicity” is “non-hygroscopic”.
